Assay results: patent US20050032896A1, “Use of synthetic retinoic acid in form of 13-cis vitamin A for treatment of autism” (priority 2002, published 2005)

Columns and labels:
Assay type in all cases: in vivo, human
synaptic activity = experiment: Auditory evoked potential (AEP) responses before and after the dosage regimen; details: after the dosage regimen versus before
Description: (§1) As an example, the improvements in relief or elimination of symptoms of autistic disorder after about 17 days of administering synthetic retinoic acid in the form of 13-cis vitamin A at dosage levels of from about 20 mg every other day to about 40 mg per day, auditory evoked potential (AEP) responses were given before administering the mentioned dosage and after administration of the dosage regimen.

symptoms of autism = experiment: Oral treatment of an autistic subject, observed symptoms of autism
Description: The patient in the present example is a child, weighs approximately 60 pounds, and is characterized by the symptoms of deficiencies in short term memory, inadequate independent problem solving skills for their age, deficient spontaneous verbalizations, utterances of diminished length, infrequent request to interact with family members and friends, insufficient capacity to master the complexity of play schemes for their age, and a tendency toward abnormal emotional responses (i.e. laughing when someone is seriously hurt in a movie, not offering assistance to family members when hurt, and not laughing along with siblings while watching cartoons, but instead tensing and becoming overly excited).
The subject weighing approximately 60 pounds was given a dosage of synthetic retinoic acid in the form of 13-cis vitamin A in amounts from about […] to about 40 mg per 60 lbs of body weight per day. […] Improvements in lessening the symptoms associated with the autism disorder were noted as early as 10 days into the treatment, with solid gains noted by the 17th day into the treatment.
as §1

[1] = Blood analysis for retinoic acid content after oral vitamin A palmitate, second study 1999 to 2000; details: autistic subject; oral 20 mg every other day for two weeks, then 40 mg per day up to 5 months
Description: In a second study conducted in a period from 1999 to 2000, the autistic subject was orally given retinoic acid in the form of […] in an amount of 20 mg every other day for two weeks, and thereafter the dosage was increased to 40 mg per day for a period up to 5 months. […] Although there are numerous cis-trans isomers of vitamin A, there is no possibility for cis-trans isomerism about the cyclohexane double bond because the ring contains only 6 atoms. There are four carbon-carbon double bonds in the chain of atoms attached to the substituted cyclohexane ring, and each has the potential for cis-trans isomerism. Therefore, there are 2×2×2×2, or 16, possible cis-trans isomers for vitamin A. [drawing 1]

[2] = Blood analysis for retinoic acid content after oral vitamin A palmitate, first vitamin A study 1996; details: autistic subject; vitamin A palmitate day 1=0, day 2=25,000 IU, day 3 through day 7=50,000 IU
Description: In the first vitamin A study in 1996, a sample of the autistic subjects blood was analyzed for retinoic acid content on the belief that there was a deficiency of retinoic acid. At this time, the subject had been receiving up to about 50,000 IU dose of vitamin A palmitate, wherein day 1=0, day 2=25,000 IU and day 3 through day 7=50,000 IU. The RDA is 5,000 IU per day.

[3] = 20 mg every other day for two weeks, then 40 mg per day, oral
[4] = autistic subject, oral dosage regimen

Row | SMILES | synaptic activity recorded by audio evoked potentials (AEP) (synaptic activity) | time into treatment at which improvements in symptoms were first noted (symptoms of autism; [3]) [days] | time into treatment at which solid gains were noted (symptoms of autism; [3]) [days] | language and cognitive functions (symptoms of autism; after the dosage regimen for between about 10 and 17 days) | capability to master the complexity of play schemes (symptoms of autism; [4]) | frequency of request to interact with family members and friends (symptoms of autism; [4]) | independent problem solving skills (symptoms of autism; [4]) | length of utterances (symptoms of autism; [4]) | short term memory (symptoms of autism; [4]) | spontaneous verbalizations (symptoms of autism; [4]) | tendencies towards more normalized emotional responses (symptoms of autism; [4]) | optimal dose for lessening the symptoms of autism (symptoms of autism; for two weeks, thereafter increased to 40 mg per day, person, approx. 60 pounds, oral) | retinoic acid content in blood samples [1] | retinoic acid content in blood [2]
1 | CC1=C(/C=C/C(C)=C/C=C/C(C)=C\C(=O)O)C(C)(C)CCC1 | increase in synaptic activity | 10 | ≤ 17 | noted improvement in language and cognitive functions | increase in the capability to master the complexity of play schemes | increase in the frequency of request to interact with family members and friends | improvement in independent problem solving skills | increase in the length of utterances | Improvement in short term memory | increase in spontaneous verbalizations | improvement in tendencies towards more normalized emotional responses | about 20 mg per 60 lbs of body weight every other day | – | –
2 | CCCCCCCCCCCCCCCC(=O)OC/C=C(C)/C=C/C=C(C)/C=C/C1=C(C)CCCC1(C)C [vitamin A palmitate] | – | – | – | – | – | – | – | – | – | – | – | – | contained no retinoic acid | no retinoic acid could be detected
